# Assays:
# [1] = test system: canarygrass; test: Test D preemergence; format: in vivo, Phalaris minor; conditions: for Plant response rating, Canarygrass: Preemergence, scale 0 to 100
# In short: (§1)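 Scores of 0 (no effect) to 100 (complete control) come from visual comparison with untreated plants 14–21 days after spraying. Applications were made pre-emergence to silt loam or post-emergence to plants 2–18 cm tall.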
# [2] = test system: deadnettle; test: Test D preemergence; format: in vivo, Lamium amplexicaule; conditions: for Plant response rating, Deadnettle: Preemergence, scale 0 to 100
# In short: as §1
# [3] = test system: ryegrass, Italian; test: Test D preemergence; format: in vivo, Lolium multiflorum; conditions: for Plant response rating, Ryegrass, Italian: Preemergence, scale 0 to 100
# In short: as §1
# [4] = test system: kochia; test: Test D preemergence; format: in vivo, Kochia scoparia; conditions: for Plant response rating, Kochia: Preemergence, scale 0 to 100
# In short: as §1
# [5] = test system: lambsquarters; test: Test D preemergence; format: in vivo, Chenopodium album; conditions: for Plant response rating, Lambsquarters: Preemergence, scale 0 to 100
# In short: as §1
# [6] = test system: buckwheat, wild; test: Test D preemergence; format: in vivo, Polygonum convolvulus; conditions: for Plant response rating, Buckwheat, Wild: Preemergence, scale 0 to 100
# In short: as §1
# [7] = test system: mustard, wild; test: Test D preemergence; format: in vivo, Sinapis arvensis; conditions: for Plant response rating, Mustard, Wild: Preemergence, scale 0 to 100
# In short: as §1
# [8] = test system: bromegrass, downy; test: Test D postemergence; format: in vivo, Bromus tectorum; conditions: scale 0 to 100
# In short: as §1
# [9] = test system: field poppy; test: Test D postemergence; format: in vivo, Papaver rhoeas; conditions: scale 0 to 100
# In short: as §1
# [10] = test system: foxtail, green; test: Test D postemergence; format: in vivo, Setaria viridis; conditions: scale 0 to 100
# In short: as §1
# [11] = test system: lambsquarters; test: Test D postemergence; format: in vivo, Chenopodium album; conditions: scale 0 to 100
# In short: as §1
# [12] = test system: speedwell; test: Test D postemergence; format: in vivo, Veronica persica; conditions: scale 0 to 100
# In short: as §1
# [13] = test system: barley, spring; test: Test D postemergence; format: in vivo, Hordeum vulgare; conditions: scale 0 to 100
# In short: as §1
# [14] = test system: barley, winter; test: Test D postemergence; format: in vivo, Hordeum vulgare; conditions: scale 0 to 100
# In short: as §1
# [15] = test system: wheat, spring; test: Test D postemergence; format: in vivo, Triticum aestivum; conditions: scale 0 to 100
# In short: as §1
# [16] = test system: wheat, winter; test: Test D postemergence; format: in vivo, Triticum aestivum; conditions: scale 0 to 100
# In short: as §1
# [17] = test system: oat, wild; test: Test D postemergence; format: in vivo, Avena fatua; conditions: scale 0 to 100
# In short: as §1
# [18] = 16 g ai/ha, taken as preemergence
smiles,measurement,setting,value
O=C(NC1CC1)c1cc(CCF)n(Cc2ccnc(C(F)(F)F)c2)n1 [Compound 176],"Plant response rating (scale 0 to 100), Canarygrass",[1]; [18],0
same,"Plant response rating, Canarygrass",[1]; 31 g ai/ha,5
same,"Plant response rating, Canarygrass",[1]; 62 g ai/ha,25
same,"Plant response rating, Canarygrass",[1]; 125 g ai/ha,35
same,"Plant response rating (scale 0 to 100), Deadnettle",[2]; [18],0
same,"Plant response rating, Deadnettle",[2]; 31 g ai/ha,20
same,"Plant response rating, Deadnettle",[2]; 62 g ai/ha,80
same,"Plant response rating, Deadnettle",[2]; 125 g ai/ha,100
same,"Plant response rating (scale 0 to 100), Ryegrass, Italian",[3]; [18],0
same,"Plant response rating, Ryegrass, Italian",[3]; 62 g ai/ha,25
same,"Plant response rating, Ryegrass, Italian",[3]; 125 g ai/ha,30
same,"Plant response rating (scale 0 to 100), Kochia",[4]; [18],5
same,"Plant response rating, Kochia",[4]; 62 g ai/ha,45
same,"Plant response rating, Kochia",[4]; 125 g ai/ha,100
same,"Plant response rating (scale 0 to 100), Lambsquarters",[5]; [18],0
same,"Plant response rating, Lambsquarters",[5]; 62 g ai/ha,65
same,"Plant response rating, Lambsquarters",[5]; 125 g ai/ha,95
same,"Plant response rating (scale 0 to 100), Buckwheat, Wild",[6]; [18],0
same,"Plant response rating, Buckwheat, Wild",[6]; 31 g ai/ha,15
same,"Plant response rating, Buckwheat, Wild",[6]; 62 g ai/ha,95
same,"Plant response rating, Buckwheat, Wild",[6]; 125 g ai/ha,85
same,"Plant response rating (scale 0 to 100), Mustard, Wild",[7]; [18],10
same,"Plant response rating, Mustard, Wild",[7]; 62 g ai/ha,90
same,"Plant response rating, Mustard, Wild",[7]; 125 g ai/ha,100
same,"Plant response rating, Bromegrass, Downy","[8]; Postemergence, 16 g ai/ha",10
same,"Bromegrass, Downy plant response rating","[8]; Postemergence, 31 g ai/ha",25
same,"Bromegrass, Downy plant response rating","[8]; Postemergence, 125 g ai/ha",30
same,"Bromegrass, Downy plant response rating","[8]; postemergence, 62 g ai/ha",25
same,"Plant response rating, Field Poppy","[9]; Postemergence, 16 g ai/ha",45
same,Field Poppy plant response rating,"[9]; Postemergence, 31 g ai/ha",50
same,Field Poppy plant response rating,"[9]; Postemergence, 125 g ai/ha",65
same,Field Poppy plant response rating,"[9]; postemergence, 62 g ai/ha",50
same,"Plant response rating, Foxtail, Green","[10]; Postemergence, 16 g ai/ha",10
same,"Foxtail, Green plant response rating","[10]; Postemergence, 31 g ai/ha",20
same,"Foxtail, Green plant response rating","[10]; Postemergence, 125 g ai/ha",35
same,"Foxtail, Green plant response rating","[10]; postemergence, 62 g ai/ha",20
same,"Plant response rating, Lambsquarters","[11]; Postemergence, 16 g ai/ha",55
same,Lambsquarters plant response rating,"[11]; Postemergence, 31 g ai/ha",60
same,Lambsquarters plant response rating,"[11]; Postemergence, 125 g ai/ha",75
same,Lambsquarters plant response rating,"[11]; postemergence, 62 g ai/ha",60
same,"Plant response rating, Speedwell","[12]; Postemergence, 16 g ai/ha",50
same,Speedwell plant response rating,"[12]; Postemergence, 31 g ai/ha",70
same,Speedwell plant response rating,"[12]; Postemergence, 125 g ai/ha",70
same,Speedwell plant response rating,"[12]; postemergence, 62 g ai/ha",70
same,"Barley, Spring plant response rating","[13]; Postemergence, 16 g ai/ha",0
same,"Barley, Spring plant response rating","[13]; Postemergence, 31 g ai/ha",10
same,"Barley, Spring plant response rating","[13]; Postemergence, 125 g ai/ha",15
same,"Barley, Spring plant response rating","[13]; postemergence, 62 g ai/ha",10
same,"Barley, Winter plant response rating","[14]; Postemergence, 16 g ai/ha",0
same,"Barley, Winter plant response rating","[14]; Postemergence, 31 g ai/ha",10
same,"Barley, Winter plant response rating","[14]; Postemergence, 125 g ai/ha",20
same,"Barley, Winter plant response rating","[14]; postemergence, 62 g ai/ha",10
same,"Plant response rating, Wheat, Spring","[15]; Postemergence, 16 g ai/ha",0
same,"Wheat, Spring plant response rating","[15]; Postemergence, 31 g ai/ha",0
same,"Wheat, Spring plant response rating","[15]; Postemergence, 125 g ai/ha",0
same,"Wheat, Spring plant response rating","[15]; postemergence, 62 g ai/ha",0
same,"Plant response rating, Wheat, Winter","[16]; Postemergence, 16 g ai/ha",5
same,"Wheat, Winter plant response rating","[16]; Postemergence, 31 g ai/ha",5
same,"Wheat, Winter plant response rating","[16]; Postemergence, 125 g ai/ha",15
same,"Wheat, Winter plant response rating","[16]; postemergence, 62 g ai/ha",5
same,"Plant response rating, Oat, Wild","[17]; Postemergence, 16 g ai/ha",5
same,"Oat, Wild plant response rating","[17]; Postemergence, 31 g ai/ha",15
same,"Oat, Wild plant response rating","[17]; Postemergence, 125 g ai/ha",20
same,"Oat, Wild plant response rating","[17]; postemergence, 62 g ai/ha",15

# Reference: patent US20150105252A1, “SUBSTITUTED PYRAZOLES AS HERBICIDES” (E I DU PONT DE NEMOURS AND COMPANY, priority 2013, published 2015)
